Data reported in US11779600B2, “Methods of treating or preventing alzheimer's disease and associated conditions” (CEDARS-SINAI MEDICAL CENTER, priority 2016, dated 2023).

Tested on: ADtg mice
Assay: Pre- and post-synaptic density in brains of AD+ mice after immune modulation
Type: in vivo, mouse
Settings: 13m old AD+ mice (FIG. 3E)
Experimental: ADtg mice (10 months old) received subcutaneous injections of GA [also known as Cop-1 and Copaxone®; 100 μg in phosphate-buffered saline (PBS)] or PBS alone (control group) twice a week for 1 week and then once a week for 8 weeks. For evaluation of innate immune infiltration to the brain by flow cytometry, 10-month-old ADtg mice received subcutaneous injections of GA ([…]) or PBS alone twice a week for 1 week and then once a week for 3 weeks. At the end of the study, all mice were anaesthetized and then perfused with ice-cold PBS with 0.5 mM EDTA, after which their organs were collected and analyzed or fixed in 2.5% paraformaldehyde (Sigma-Aldrich), and cryoprotected with 30% sucrose for further histological analysis. […]
To define the synaptic area in the hippocampus of ADtg and non-transgenic (wild-type) mice, three independent coronal brain sections at bregma −2.50 , −2.65, and −2.80 mm (Liang et al., 2011) per animal (n=6 mice per group) were stained with the presynaptic marker VGluT1 (encoded by Slc17a7) (Chemicon, guinea pig, 1:6000). […] Single optical section images were analyzed using the NIH ImageJ macro and batch process to quantify the synaptic area (15 optical sections/field, 15 fields/brain section, and 675 total images/brain). The average synaptic area or percentage of the area per image was calculated for each condition. […]

With glatiramer acetate [GA] as the substance, how does the “synaptic rescue (pre- and post-synaptic areas)” value read?
The value was “remarkable synaptic rescue”.
